Among the data in article PMC9030254, “Target Hopping from Protein Kinases to PXR: Identification of Small-Molecule Protein Kinase Inhibitors as Selective Modulators of Pregnane X Receptor from TüKIC Library” (Cells, 2022) are Residual activity values, retold here.

What all share (experiment): Kinase profiling
What all share (assay type): biochemical

Assay [1] has as its target T1, BLK (Homo sapiens, UniProt P51451).
T1 construct: purchased ProQinase (Freiburg, Germany)
As for the experimental part:
(§1) The analysis was performed by ProQinase (Freiburg, Germany).

Assay [2] has as its target T2, BMPR1B (Homo sapiens, UniProt O00238).
T2 construct: purchased ProQinase (Freiburg, Germany)
As for the experimental part: as §1

Assay [3] concerns the target T3, BRSK2 (Homo sapiens, UniProt Q8IWQ3).
T3 construct: purchased ProQinase (Freiburg, Germany)
T3 sequence (Q8IWQ3 1-736): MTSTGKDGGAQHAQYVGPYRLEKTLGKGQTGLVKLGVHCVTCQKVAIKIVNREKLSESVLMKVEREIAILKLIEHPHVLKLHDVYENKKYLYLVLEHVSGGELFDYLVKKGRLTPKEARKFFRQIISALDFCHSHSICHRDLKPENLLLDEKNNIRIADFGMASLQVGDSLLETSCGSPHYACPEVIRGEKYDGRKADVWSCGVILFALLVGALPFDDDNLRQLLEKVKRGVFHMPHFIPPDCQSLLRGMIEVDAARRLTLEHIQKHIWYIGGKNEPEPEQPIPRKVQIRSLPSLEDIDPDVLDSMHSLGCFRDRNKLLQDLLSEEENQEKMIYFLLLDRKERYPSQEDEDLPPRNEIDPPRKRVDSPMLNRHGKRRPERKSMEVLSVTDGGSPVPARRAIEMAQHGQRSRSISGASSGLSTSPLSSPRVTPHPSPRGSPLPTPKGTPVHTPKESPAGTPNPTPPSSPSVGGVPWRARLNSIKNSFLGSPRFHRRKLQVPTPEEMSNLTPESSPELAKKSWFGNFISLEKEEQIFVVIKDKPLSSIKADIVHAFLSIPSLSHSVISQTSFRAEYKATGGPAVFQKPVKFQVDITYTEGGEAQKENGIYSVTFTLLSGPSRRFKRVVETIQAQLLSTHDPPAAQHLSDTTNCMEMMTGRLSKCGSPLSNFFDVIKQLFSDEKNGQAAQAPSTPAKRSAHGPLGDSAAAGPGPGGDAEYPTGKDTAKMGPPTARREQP
As for the experimental part:
as §1

The target of assay [4] is T4, CAMKK2 (Homo sapiens, UniProt Q96RR4).
T4 construct: purchased ProQinase (Freiburg, Germany)
Here is the method:
as §1

In assay [5] the target is T5, CDC42BPB (Homo sapiens, UniProt Q9Y5S2).
T5 construct: purchased ProQinase (Freiburg, Germany)
Here is the method:
as §1

Assay [6] concerns the target T6, CDK5/p35NCK (Homo sapiens, UniProt Q00535).
T6 construct: purchased ProQinase (Freiburg, Germany)
As for the experimental part: as §1

Assay [7] deals with T7, CHK1 (Homo sapiens, UniProt O14757).
T7 construct: purchased ProQinase (Freiburg, Germany)
T7 sequence (O14757 1-476): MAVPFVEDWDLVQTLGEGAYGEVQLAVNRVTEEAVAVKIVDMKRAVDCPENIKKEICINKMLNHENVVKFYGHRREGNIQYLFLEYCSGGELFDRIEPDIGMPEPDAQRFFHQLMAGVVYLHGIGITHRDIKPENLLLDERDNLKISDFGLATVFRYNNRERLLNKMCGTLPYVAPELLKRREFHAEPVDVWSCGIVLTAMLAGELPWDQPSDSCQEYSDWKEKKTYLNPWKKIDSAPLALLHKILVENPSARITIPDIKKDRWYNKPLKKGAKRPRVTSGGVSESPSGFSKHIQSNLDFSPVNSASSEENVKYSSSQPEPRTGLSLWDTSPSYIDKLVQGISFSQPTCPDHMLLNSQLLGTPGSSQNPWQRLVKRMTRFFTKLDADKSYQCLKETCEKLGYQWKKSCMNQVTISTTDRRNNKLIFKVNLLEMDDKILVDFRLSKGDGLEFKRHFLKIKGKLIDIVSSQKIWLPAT
As for the experimental part:
as §1

In assay [8] the target is T8, DAPK3 (Homo sapiens, UniProt O43293).
T8 construct: purchased ProQinase (Freiburg, Germany)
As for the experimental part: as §1

Assay [9] addresses T9, DNAPK (Homo sapiens, UniProt P78527).
T9 construct: purchased ProQinase (Freiburg, Germany)
As for the experimental part: as §1

For assay [10], the target named is T10, MARK2 (Homo sapiens, UniProt Q7KZI7).
T10 construct: purchased ProQinase (Freiburg, Germany)
Here is the method: as §1

For assay [11], the target named is T11, MEKK2 (Homo sapiens, UniProt Q9Y2U5).
T11 construct: purchased ProQinase (Freiburg, Germany)
T11 sequence (Q9Y2U5 1-619): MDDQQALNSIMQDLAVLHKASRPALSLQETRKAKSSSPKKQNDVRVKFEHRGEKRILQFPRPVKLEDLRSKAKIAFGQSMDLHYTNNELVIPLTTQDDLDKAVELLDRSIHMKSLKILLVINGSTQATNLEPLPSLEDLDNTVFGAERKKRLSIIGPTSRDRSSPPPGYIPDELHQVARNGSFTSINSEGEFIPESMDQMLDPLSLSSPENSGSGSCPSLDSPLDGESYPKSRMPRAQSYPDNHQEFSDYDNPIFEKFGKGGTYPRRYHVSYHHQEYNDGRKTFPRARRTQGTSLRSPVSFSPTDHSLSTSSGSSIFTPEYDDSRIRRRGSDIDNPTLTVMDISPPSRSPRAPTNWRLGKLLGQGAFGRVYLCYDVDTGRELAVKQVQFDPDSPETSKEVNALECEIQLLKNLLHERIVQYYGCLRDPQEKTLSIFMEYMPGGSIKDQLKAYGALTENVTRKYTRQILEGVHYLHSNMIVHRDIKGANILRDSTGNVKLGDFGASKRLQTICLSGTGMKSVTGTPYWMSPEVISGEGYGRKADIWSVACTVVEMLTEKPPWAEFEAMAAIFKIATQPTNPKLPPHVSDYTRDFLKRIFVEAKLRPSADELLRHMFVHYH
As for the experimental part:
as §1

The target in assay [12] is T12, PRKX (Homo sapiens, UniProt P51817).
T12 construct: purchased ProQinase (Freiburg, Germany)
T12 sequence (P51817 1-358): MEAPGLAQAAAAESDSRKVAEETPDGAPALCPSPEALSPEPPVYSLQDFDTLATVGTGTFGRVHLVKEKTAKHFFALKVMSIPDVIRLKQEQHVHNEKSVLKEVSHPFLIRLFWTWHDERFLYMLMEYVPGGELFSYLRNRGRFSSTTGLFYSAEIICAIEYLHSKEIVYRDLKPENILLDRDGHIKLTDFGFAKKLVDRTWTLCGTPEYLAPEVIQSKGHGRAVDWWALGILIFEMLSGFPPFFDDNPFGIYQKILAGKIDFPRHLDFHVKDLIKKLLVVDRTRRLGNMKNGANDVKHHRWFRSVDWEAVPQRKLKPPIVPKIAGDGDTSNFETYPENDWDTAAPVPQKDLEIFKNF
Here is the method: as §1

T8 sequence (O43293 whole entry): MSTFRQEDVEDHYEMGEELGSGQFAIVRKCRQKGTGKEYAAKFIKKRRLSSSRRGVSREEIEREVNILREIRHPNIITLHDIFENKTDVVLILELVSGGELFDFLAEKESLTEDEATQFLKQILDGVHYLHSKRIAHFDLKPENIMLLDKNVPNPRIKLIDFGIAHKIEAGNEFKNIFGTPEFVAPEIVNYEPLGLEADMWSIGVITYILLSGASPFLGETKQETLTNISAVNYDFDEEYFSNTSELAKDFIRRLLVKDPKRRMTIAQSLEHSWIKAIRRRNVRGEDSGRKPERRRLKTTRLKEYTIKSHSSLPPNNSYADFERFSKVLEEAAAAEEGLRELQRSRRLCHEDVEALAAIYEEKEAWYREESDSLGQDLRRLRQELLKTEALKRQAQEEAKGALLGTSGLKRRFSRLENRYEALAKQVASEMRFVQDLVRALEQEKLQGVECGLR
T1 sequence (P51451 whole entry): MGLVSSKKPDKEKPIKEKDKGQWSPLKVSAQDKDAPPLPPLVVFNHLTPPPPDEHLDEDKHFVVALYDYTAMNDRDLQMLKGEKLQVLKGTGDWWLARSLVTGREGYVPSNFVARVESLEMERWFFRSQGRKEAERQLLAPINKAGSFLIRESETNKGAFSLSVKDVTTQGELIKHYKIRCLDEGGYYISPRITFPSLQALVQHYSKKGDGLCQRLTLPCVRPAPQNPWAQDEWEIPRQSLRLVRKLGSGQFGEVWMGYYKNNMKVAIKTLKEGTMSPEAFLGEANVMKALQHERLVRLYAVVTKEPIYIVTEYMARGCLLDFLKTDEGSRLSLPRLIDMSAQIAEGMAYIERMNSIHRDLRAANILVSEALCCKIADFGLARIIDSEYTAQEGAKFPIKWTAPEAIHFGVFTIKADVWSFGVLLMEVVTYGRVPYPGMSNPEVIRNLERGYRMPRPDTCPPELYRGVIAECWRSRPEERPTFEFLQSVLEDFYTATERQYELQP
T4 sequence (Q96RR4 whole entry): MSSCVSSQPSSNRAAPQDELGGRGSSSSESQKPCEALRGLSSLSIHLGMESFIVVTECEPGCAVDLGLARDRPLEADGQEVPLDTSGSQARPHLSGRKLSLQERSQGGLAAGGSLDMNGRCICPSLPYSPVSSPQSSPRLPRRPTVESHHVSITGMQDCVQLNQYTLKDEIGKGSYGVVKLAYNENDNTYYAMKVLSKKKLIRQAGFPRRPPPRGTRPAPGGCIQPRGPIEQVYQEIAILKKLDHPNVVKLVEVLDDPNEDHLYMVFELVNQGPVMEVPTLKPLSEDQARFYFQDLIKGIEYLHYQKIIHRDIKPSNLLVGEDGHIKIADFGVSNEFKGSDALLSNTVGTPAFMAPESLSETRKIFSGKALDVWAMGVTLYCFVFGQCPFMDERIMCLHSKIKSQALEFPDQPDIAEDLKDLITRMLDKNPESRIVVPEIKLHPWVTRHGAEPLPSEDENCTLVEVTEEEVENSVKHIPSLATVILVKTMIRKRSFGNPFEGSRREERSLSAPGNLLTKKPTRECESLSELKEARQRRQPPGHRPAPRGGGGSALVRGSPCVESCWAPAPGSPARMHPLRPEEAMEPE
T2 sequence (O00238 14-502): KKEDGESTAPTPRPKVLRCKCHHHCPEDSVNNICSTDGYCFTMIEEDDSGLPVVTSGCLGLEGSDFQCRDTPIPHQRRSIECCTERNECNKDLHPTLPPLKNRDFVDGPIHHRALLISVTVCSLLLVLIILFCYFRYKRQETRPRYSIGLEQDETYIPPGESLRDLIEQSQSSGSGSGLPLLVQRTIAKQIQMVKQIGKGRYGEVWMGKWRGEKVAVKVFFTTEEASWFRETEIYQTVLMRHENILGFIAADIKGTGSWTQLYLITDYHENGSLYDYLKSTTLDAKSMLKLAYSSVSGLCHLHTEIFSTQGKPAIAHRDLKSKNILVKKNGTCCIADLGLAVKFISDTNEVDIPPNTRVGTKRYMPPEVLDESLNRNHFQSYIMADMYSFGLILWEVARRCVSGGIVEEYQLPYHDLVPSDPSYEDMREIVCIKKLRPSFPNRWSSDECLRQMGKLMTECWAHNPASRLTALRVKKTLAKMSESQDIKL
T6 sequence (Q00535 whole entry): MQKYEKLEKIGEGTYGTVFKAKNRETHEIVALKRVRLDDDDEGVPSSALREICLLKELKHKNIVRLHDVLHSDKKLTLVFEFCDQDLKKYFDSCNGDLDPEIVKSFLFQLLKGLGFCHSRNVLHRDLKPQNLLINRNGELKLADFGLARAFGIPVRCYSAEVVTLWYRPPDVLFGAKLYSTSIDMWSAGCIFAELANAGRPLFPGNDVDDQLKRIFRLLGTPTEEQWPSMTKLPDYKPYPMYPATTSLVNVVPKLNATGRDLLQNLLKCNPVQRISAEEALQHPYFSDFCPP
T6 sequence (Q15078 whole entry partner): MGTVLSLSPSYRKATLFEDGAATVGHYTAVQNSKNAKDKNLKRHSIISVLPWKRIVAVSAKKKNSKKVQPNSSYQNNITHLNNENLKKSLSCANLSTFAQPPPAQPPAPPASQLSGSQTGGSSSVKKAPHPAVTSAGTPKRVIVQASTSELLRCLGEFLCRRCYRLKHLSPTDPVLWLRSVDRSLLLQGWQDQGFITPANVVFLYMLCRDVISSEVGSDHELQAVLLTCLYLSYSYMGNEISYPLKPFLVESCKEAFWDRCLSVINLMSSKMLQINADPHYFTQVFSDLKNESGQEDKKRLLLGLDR
T10 sequence (Q7KZI7 whole entry): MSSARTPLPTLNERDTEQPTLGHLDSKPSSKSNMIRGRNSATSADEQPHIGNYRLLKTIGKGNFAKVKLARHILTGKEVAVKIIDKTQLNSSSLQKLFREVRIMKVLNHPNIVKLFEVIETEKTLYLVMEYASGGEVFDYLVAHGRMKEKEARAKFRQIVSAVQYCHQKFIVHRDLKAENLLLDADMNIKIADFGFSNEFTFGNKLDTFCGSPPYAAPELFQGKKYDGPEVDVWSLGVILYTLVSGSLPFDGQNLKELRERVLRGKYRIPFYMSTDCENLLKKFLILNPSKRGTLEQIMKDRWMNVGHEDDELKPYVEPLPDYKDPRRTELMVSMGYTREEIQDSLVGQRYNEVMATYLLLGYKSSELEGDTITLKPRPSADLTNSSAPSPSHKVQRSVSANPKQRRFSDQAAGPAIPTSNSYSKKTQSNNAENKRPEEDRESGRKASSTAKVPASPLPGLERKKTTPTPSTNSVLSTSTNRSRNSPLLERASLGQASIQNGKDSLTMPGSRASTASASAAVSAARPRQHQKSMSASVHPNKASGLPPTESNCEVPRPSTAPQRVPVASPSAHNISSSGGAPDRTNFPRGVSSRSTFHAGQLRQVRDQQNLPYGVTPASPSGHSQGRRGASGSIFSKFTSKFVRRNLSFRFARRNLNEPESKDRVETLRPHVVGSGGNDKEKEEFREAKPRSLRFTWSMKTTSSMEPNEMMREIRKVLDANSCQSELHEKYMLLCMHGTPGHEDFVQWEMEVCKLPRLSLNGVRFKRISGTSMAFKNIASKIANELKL

As for `O=C(Cc1ccccc1)Nc1ccc(F)c(Nc2ccc3c(c2)CCCCC3=O)c1` [Compound 100], the Residual activity is recorded as 110 % of control in assay [1] (1.0E-05 M); 118 % of control in [1] (1.0E-06 M); 121 % of control in assay [2] (1.0E-05 M); 102 % of control in assay [2] (1.0E-06 M); 99 % of control in [3] (1.0E-05 M); 113 % of control in [3] (1.0E-06 M). Moreover, the Residual activity was 95 % of control in assay [4] (1.0E-05 M); 97 % of control in assay [4] (1.0E-06 M); 107 % of control in assay [5] (1.0E-05 M); 112 % of control in assay [5] (1.0E-06 M); 93 % of control in assay [6] (1.0E-05 M); 105 % of control in [6] (1.0E-06 M). In addition, the Residual activity in assay [7] (1.0E-05 M) is reported as 91 % of control; in assay [7] (1.0E-06 M) it was 91 % of control; in assay [8] (1.0E-05 M), 119 % of control; in assay [8] (1.0E-06 M), 105 % of control; in assay [9] (1.0E-05 M), 97 % of control; in [9] (1.0E-06 M) it was 95 % of control. Further, the Residual activity in assay [10] (1.0E-05 M) is on record as 104 % of control; in assay [10] (1.0E-06 M), 103 % of control; in assay [11] (1.0E-05 M), 108 % of control; in assay [11] (1.0E-06 M), 108 % of control; in assay [12] (1.0E-05 M), 88 % of control; in [12] (1.0E-06 M) it was 102 % of control.

On to `O=C(Nc1ccc(F)c(Nc2ccc3c(c2)CCCCC3=O)c1)c1cccc(F)c1` [Compound 109], for which the Residual activity in [1] (1.0E-05 M) is on record as 82 % of control; in assay [1] (1.0E-06 M) it was 82 % of control; in assay [2] (1.0E-05 M) it was 128 % of control; in [2] (1.0E-06 M) it was 101 % of control; in [3] (1.0E-05 M), 100 % of control; in [3] (1.0E-06 M) it was 109 % of control. Also, the Residual activity in assay [4] (1.0E-05 M) is recorded as 81 % of control; in assay [4] (1.0E-06 M), 84 % of control; in assay [5] (1.0E-05 M) it was 110 % of control; in assay [5] (1.0E-06 M) it was 106 % of control; in assay [6] (1.0E-05 M) it was 101 % of control; in assay [6] (1.0E-06 M) it was 95 % of control. The Residual activity in assay [7] (1.0E-05 M) is given as 90 % of control; in assay [7] (1.0E-06 M) it was 88 % of control; in assay [8] (1.0E-05 M), 107 % of control; in [8] (1.0E-06 M) it was 108 % of control; in assay [9] (1.0E-05 M), 106 % of control; in assay [9] (1.0E-06 M), 96 % of control. Further, the Residual activity is on record as 99 % of control in assay [10] (1.0E-05 M); 107 % of control in assay [10] (1.0E-06 M); 101 % of control in assay [11] (1.0E-05 M); 99 % of control in assay [11] (1.0E-06 M); 85 % of control in assay [12] (1.0E-05 M); 95 % of control in assay [12] (1.0E-06 M).
